Measured values as given in ChEMBL document CHEMBL1201862, “PubChem BioAssay data set” (2004).
The source made the active and inactive calls.

Legend:
[1] = biological target: Luciferin 4-monooxygenase (Photinus pyralis, UniProt P08659); experiment: inhibition of purified Photinus pyralis luciferase – biochemical, luminescence, dose response (AID 1891)
[2] = Luminescence Cell-Based Dose Confirmation HTS to Identify Inhibitors of Platelet Dense Granule Release. [Related pubchem assays: 1663 (Primary HTS), 1678 (Summary of Project)]; type: functional
Jurkat = experiment: blockers of NF-kB activation in T cells – Jurkat, luciferase reporter, luminescence, B- and T-cell, dose response (AID 489004); type: functional, cell-based; conditions: Homo sapiens;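 also: NF-kB luciferase reporter Jurkat cells stimulated with PMA plus ionomycin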
[3] = HEK-293T viability loss, compound-treated – cell-based, uHTS hits, cytotoxicity control for B/T-cell NF-kB inhibitor project, dose response (AID 489019); type: functional;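 also: IC50 reflects cytotoxicity as loss of cell viability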
[4] = reduction of Shn3 3'UTR-driven luciferase in osteoblasts – cell-based, Clone20 osteoblasts, firefly luciferase, cherry-picked, dose response (AID 624132); type: functional;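 also: firefly luciferase luminescence from reporter carrying the Shn3 3'UTR in osteoblasts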
[5] = loss of viability in HepG2 cells – cell-based, CellTiter-Glo, cherry-picked, cytotoxicity control for Shn3 inhibitor project, dose response (AID 624134); type: functional
Paired box protein Pax-8 = Paired box protein Pax-8 (Homo sapiens, UniProt Q06710); experiment: PAX8 transcriptional activity inhibition in RMG-I – RMG-I cells, luciferase, cherry-pick, dose response (AID 687027); type: functional, cell-based;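 also: luciferase reporter driven by Pax8 target thyroperoxidase promoter measured by SteadyGlo luminescence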
[6] = A549 cell cytotoxicity, dose response, cytotoxicity control, plate reader, cherry-pick, antagonist series (AID 743412); type: functional, cell-based
[7] = toxicity toward HepG2 liver cells – cell-based, plate reader, cherry-pick, antagonist series, cytotoxicity control, dose response (AID 743416); type: functional
[8] = blockers of bursicon-stimulated LGR2 cAMP reporter – cell-based, HEK293, CRE-luciferase reporter, cherry pick, set 2, dose response (AID 743343); type: functional;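 also: transfected cells were stimulated with diluted bursicon conditioned medium after compound addition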
[9] = general cell-killing toxicity readout – plate reader, dry powder samples, cytotoxicity control for PAX8 inhibitor project, dose response (AID 743021); type: functional, cell-based
[10] = blockade of melanocortin 4 receptor signaling – cell-based, plate reader, cherry pick, counter-screen for LGR2 antagonist project, dose response (AID 743444); type: functional;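 also: transfected HEK 293 cells stimulated with alpha-MSH peptide; potency of inhibitors of the alpha-MSH evoked signal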
[11] = viability loss in HEK293 cells – cell-based, plate reader, cherry-picked samples, cytotoxicity control, dose response (AID 743446); type: functional
Vero = experiment: cells; type: functional, cell-based; conditions: Chlorocebus sabaeus
[12] = NIH-3T3 fibroblast cytotoxicity, dose response, cytotoxicity control, cell-based, fluorescence, Alamar Blue, secondary assay (AID 2327); type: functional;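 also: NIH-3T3 mouse fibroblasts cultured with fluconazole at 8 µg/mL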
[13] = fluconazole-exposed Candida albicans growth modulators – fluorescence, retest, confirmation (AID 2467); type: functional, cell-based
[14] = biological target: Serine/threonine-protein phosphatase (Candida dubliniensis (strain CD36 / CBS 7987 / NCPF 3949 / NRRLY-17841) (Yeast), UniProt B9W6M3); experiment: blockers of CaCl2-induced CDRE-lacZ signaling – S. cerevisiae, luminescence, secondary, dose response (AID 2388); type: functional, cell-based;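 also: yeast reporter cells carrying a calcineurin-responsive lacZ construct stimulated with calcium chloride; luminescent beta-galactosidase reporter signal in whole cells rather than isolated phosphatase activity; potency for inhibition where a drop in reporter signal means calcineurin blockade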
[15] = biological target: ATP-dependent molecular chaperone HSP82 (Candida albicans (strain WO-1) (Yeast), UniProt C4YTQ8); experiment: steroid-induced GRE reporter decrease in yeast – S. cerevisiae, luminescence, Hsp90 inhibitor project, dose response (AID 2400); type: functional, cell-based;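 also: beta-galactosidase luminescence from glucocorticoid response element reporter as proxy for Hsp90 function; inhibitor potency where signal loss means Hsp90 inhibition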
HEK293 = experiment: cells; type: functional, cell-based; conditions: Homo sapiens
[16] = biological target: T1, Nuclear receptor subfamily 0 group B member 1 (Homo sapiens, UniProt P51843); experiment: Luminescence-based cell-based high throughput dose response assay for inhibitors of the orphan nuclear receptor subfamily 0, group B, member 1 (DAX1; NR0B1). [Related pubchem assays (depositor defined):AID504766, AID504790]; type: functional
T1 sequence (P51843 whole entry): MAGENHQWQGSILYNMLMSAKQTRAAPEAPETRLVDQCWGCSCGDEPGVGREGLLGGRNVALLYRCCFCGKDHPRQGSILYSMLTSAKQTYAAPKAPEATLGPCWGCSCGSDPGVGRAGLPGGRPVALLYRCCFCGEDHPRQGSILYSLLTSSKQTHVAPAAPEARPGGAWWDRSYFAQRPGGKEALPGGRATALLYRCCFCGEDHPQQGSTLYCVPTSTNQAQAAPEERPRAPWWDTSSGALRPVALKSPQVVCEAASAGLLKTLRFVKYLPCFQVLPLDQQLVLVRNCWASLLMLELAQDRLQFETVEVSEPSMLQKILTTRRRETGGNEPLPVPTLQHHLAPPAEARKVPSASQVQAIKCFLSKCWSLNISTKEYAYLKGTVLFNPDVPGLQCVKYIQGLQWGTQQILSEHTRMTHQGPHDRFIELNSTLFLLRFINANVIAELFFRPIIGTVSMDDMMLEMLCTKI

[17] = biological target: T2, Microphthalmia-associated transcription factor (Homo sapiens, UniProt O75030); experiment: reducers of TRPM1 reporter luminescence, concentration series – cell-based, SK-MEL-5, cherry-picked, set 3, MITF inhibitor project, dose response (AID 493073); type: functional;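 also: SK-MEL-5 melanoma cells with luciferase driven by the MITF target TRPM1 promoter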
T2 sequence (O75030 whole entry): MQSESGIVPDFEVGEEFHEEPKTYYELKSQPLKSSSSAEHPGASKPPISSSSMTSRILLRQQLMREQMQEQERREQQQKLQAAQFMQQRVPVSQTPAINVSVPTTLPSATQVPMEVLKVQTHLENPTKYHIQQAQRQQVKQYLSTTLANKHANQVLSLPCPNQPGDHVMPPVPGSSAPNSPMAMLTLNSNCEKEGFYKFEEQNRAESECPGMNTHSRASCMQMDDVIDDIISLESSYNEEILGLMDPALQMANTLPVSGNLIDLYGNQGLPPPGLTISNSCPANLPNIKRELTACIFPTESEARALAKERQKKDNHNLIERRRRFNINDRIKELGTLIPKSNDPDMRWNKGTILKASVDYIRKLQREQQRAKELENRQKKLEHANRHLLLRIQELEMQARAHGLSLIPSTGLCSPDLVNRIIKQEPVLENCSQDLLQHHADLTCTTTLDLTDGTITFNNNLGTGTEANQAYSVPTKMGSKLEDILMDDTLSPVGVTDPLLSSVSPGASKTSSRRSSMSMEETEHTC

[18] = biological target: T3, Endoribonuclease toxin MazF (Escherichia coli K-12, UniProt P0AE70); experiment: activation of MazEF endoribonuclease cleavage – biochemical, fluorescence, single-stranded RNA substrate, uHTS hits, dose response (AID 588481); type: functional
T3 sequence (P0AE70 whole entry): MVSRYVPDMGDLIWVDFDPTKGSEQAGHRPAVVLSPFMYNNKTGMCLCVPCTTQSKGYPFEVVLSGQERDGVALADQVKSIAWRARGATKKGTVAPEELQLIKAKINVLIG

A-375 [19] = experiment: MITF: Counter assay: A375 proliferation Measured in Cell-Based System Using Plate Reader - 2084-03_Inhibitor_Dose_DryPowder_Activity. [Related pubchem assays (depositor defined):AID488944]; type: functional; conditions: Homo sapiens
[20] = biological target: T3, Endoribonuclease toxin MazF; experiment: substrate-only fluorescence increase artefacts – biochemical, single-stranded RNase substrate, counter-screen for MazEF activator project, dose response (AID 588502); type: functional
A-375 [21] = experiment: proliferation inhibition in MITF-low A375 cells – cell-based, cherry-pick samples, set 2, counter-screen for MITF modulator project, dose response (AID 540335); type: functional; conditions: Homo sapiens
Bcl-2-related protein A1 = biological target: T4, Bcl-2-related protein A1 (Mus musculus, UniProt Q07440); type: functional;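 also: confirmatory dose–response counterscreen on Bfl-1, used to check hits from a UBC13 polyubiquitin inhibitor campaign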
T4 sequence (Q07440 whole entry): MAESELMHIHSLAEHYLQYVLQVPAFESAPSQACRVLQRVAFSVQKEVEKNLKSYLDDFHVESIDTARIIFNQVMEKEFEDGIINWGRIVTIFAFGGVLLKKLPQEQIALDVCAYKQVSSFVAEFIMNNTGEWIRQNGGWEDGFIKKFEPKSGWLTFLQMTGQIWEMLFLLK

[22] = biological target: T5, Ubiquitin-conjugating enzyme E2 N (Homo sapiens, UniProt P61088); type: functional
T5 sequence (P61088 whole entry): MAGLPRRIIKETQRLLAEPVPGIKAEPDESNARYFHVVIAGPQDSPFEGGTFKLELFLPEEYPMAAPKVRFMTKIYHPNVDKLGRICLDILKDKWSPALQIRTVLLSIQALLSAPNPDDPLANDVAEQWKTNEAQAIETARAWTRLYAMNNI

[23] = biological target: T5, Ubiquitin-conjugating enzyme E2 N; type: functional; remark: listed apart in the source
Beta-galactosidase = Beta-galactosidase (Escherichia coli, UniProt Q8VNN2); experiment: PubChem AID 485352; type: functional
[24] = biological target: Type-1 angiotensin II receptor (Homo sapiens, UniProt P30556); experiment: antagonism of angiotensin II type 1 receptor – cell-based, uHTS hits, selectivity assay for APJ receptor antagonist project, dose response (AID 463214); type: functional;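 also: antagonist potency against angiotensin II stimulated AT1 response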
[25] = viability of PTEN-deleted HCT116 cells – cell-based, HCT116 PTEN knockout, dose response (AID 1047); type: functional;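 also: HCT116 colon tumor cells with PTEN knocked out; cells exposed to compound for 60 hours before readout; potency for loss of cell viability measured by luminescence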
[26] = viability of HCT116 lacking mutant beta-catenin – cell-based, human colon tumor, dose response (AID 1045); type: functional;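 also: HCT116 colon tumor cells with beta catenin knocked out; cells exposed to compound for 60 hours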
[27] = luciferase reporter signal suppression in cells – H4 neuroglioma cells, luminescence, dose response (AID 1990); type: functional, cell-based
[28] = Luminescence Cell-Based Dose Response HTS to Identify Inhibitors of 5'UTR Stem-Loop Driven Prion Protein mRNA Translation in H4 Neuroglioblastoma Cells. [Related pubchem assays: 1827 (Project Summary), 1813 (Primary HTS)]; type: functional
[29] = alpha-synuclein stem-loop luciferase translation blockers – H4 neuroglioma cells, luminescence, confirmation (AID 1988); type: functional, cell-based

Chain of Serine/threonine-protein phosphatase (B9W6M3 whole entry): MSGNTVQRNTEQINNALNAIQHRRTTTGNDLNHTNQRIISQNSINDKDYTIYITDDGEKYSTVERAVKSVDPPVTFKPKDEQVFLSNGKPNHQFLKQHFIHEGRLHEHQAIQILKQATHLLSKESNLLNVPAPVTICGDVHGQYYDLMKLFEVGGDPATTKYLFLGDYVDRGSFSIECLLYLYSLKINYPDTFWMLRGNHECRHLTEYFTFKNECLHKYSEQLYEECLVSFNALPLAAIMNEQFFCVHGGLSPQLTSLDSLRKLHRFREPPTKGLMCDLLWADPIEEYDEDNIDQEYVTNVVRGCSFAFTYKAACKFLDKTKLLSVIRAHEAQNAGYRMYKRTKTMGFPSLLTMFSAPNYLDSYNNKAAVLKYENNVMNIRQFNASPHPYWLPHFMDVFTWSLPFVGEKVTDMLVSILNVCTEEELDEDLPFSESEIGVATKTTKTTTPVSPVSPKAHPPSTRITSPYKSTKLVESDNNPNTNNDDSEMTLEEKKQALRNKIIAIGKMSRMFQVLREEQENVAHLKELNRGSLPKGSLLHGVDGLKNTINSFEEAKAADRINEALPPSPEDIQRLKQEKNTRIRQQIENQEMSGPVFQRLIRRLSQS
Chain of Type-1 angiotensin II receptor (P30556 whole entry): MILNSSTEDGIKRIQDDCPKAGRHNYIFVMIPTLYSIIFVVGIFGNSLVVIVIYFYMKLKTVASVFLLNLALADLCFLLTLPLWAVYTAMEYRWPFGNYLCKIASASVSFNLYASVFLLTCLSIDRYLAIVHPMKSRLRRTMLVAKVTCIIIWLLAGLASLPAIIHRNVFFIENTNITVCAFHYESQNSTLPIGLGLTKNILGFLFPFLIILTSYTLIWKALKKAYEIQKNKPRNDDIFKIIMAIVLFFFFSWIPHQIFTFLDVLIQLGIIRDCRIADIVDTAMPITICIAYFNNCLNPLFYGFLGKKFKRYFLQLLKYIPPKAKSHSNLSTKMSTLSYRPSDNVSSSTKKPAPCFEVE
Chain of Luciferin 4-monooxygenase (P08659 whole entry): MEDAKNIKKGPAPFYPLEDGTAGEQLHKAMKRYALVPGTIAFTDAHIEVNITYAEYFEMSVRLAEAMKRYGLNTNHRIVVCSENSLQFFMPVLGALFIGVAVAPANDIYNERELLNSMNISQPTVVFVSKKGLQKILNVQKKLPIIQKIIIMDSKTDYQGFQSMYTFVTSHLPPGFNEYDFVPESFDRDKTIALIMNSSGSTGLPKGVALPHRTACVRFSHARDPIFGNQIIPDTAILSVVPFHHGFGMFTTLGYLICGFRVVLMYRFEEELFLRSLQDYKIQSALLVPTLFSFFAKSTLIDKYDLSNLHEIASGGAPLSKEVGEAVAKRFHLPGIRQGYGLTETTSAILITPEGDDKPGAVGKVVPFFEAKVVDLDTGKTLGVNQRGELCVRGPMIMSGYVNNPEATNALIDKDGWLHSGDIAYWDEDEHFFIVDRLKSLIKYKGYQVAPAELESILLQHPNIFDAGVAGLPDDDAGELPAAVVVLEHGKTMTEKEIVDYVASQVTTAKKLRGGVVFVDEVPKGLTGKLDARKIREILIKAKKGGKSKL
Chain of ATP-dependent molecular chaperone HSP82 (C4YTQ8 whole entry): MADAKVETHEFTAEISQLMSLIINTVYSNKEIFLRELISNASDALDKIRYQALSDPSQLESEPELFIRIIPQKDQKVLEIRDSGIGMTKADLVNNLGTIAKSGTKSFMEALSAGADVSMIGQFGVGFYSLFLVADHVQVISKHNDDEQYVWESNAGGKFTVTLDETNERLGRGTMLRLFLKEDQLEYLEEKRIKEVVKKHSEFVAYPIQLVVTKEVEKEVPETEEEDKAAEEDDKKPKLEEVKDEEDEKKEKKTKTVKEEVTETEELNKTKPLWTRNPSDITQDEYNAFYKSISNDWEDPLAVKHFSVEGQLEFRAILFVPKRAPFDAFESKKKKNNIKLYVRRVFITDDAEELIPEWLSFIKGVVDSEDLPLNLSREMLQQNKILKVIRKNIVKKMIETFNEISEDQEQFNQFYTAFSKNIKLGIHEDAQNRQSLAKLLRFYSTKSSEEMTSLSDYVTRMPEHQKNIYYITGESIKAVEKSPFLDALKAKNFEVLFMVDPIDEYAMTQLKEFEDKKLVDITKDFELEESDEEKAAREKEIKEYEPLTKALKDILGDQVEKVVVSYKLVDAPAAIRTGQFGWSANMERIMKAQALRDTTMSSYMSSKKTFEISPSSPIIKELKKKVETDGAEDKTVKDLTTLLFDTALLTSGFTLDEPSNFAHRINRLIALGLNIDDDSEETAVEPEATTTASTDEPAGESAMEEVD
Chain of Beta-galactosidase (Q8VNN2 whole entry): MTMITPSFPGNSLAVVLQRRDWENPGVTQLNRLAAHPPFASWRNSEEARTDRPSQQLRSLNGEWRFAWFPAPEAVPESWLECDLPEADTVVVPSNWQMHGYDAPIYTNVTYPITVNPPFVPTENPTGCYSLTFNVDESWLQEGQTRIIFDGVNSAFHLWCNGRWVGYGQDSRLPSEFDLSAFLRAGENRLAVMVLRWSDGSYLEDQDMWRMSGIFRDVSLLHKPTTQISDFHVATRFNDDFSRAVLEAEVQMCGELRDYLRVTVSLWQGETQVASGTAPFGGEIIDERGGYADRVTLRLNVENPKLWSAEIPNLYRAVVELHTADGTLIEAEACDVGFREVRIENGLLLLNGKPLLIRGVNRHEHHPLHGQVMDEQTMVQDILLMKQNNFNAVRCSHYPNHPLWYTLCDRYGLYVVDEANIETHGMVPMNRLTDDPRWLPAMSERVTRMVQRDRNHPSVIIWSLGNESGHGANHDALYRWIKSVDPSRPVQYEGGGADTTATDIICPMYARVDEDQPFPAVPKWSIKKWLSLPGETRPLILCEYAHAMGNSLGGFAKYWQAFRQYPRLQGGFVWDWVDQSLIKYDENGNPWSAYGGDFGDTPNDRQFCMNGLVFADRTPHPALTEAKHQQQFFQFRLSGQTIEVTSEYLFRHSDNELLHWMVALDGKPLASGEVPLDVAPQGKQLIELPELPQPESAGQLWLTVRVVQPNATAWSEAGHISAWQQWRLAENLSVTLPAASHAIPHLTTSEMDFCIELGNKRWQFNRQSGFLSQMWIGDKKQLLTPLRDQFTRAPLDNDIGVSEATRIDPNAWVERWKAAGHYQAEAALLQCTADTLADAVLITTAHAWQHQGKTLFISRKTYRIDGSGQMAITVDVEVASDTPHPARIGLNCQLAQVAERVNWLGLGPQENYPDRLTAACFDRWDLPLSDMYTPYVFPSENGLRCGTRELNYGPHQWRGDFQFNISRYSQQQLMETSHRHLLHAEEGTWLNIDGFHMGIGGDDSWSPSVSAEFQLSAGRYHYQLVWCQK
Chain of Paired box protein Pax-8 (Q06710 whole entry): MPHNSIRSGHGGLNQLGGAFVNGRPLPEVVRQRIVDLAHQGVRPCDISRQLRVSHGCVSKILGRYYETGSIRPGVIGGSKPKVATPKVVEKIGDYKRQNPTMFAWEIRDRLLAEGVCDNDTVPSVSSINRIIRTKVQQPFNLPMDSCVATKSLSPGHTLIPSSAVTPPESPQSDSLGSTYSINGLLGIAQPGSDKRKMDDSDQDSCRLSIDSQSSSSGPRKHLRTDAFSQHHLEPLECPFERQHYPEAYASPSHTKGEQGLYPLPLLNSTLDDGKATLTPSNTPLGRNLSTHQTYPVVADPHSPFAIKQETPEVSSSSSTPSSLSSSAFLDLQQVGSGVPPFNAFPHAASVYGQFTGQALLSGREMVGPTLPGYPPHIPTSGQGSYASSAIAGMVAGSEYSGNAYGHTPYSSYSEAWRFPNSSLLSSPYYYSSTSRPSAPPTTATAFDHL

COCCn1c(C)cc(C2=NN=C(NC3CC3)SC2)c1C
EC50 [1]: 7.61 µM (active) | EC50 [2]: 2.14 µM (active) | IC50 (Jurkat): 0.22 µM (active) | IC50 [3]: > 80 µM (inactive) | AC50 [4]: < 0.26 µM (active) | AC50 [5]: 46.1 µM (active) | AC50 (Paired box protein Pax-8): < 0.26 µM (active) | AC50 [6]: 22.4 µM (active) | AC50 [7]: 26.7 µM (active) | AC50 [8]: 0.215 µM (active) | AC50 [9]: 12.1 µM (active) | AC50 [10]: 0.282 µM (active) | AC50 [11]: 29.2 µM (active)

COc1cccc2sc(N(CCCN(C)C)C(=O)c3ccc(S(=O)(=O)N4CCCc5ccccc54)cc3)nc12
IC50 (Vero): 24.6 µM (active)

CC(C)Cc1nc2oc3c(O)ncnc3c2c2c1CCCC2
EC50 [12]: > 160 µM (inactive) | EC50 [13]: 0.891 µM (active) | EC50 [14]: > 180 µM (inactive) | EC50 [15]: > 150 µM (inactive)

CCCCNc1cc(=O)n(C)c(=O)[nH]1
IC50 (HEK293): > 67.5 µM (inactive) | IC50 [16]: > 67.5 µM (inactive)

N=c1n(CC(=O)c2ccc([N+](=O)[O-])cc2)c2ccccc2n1Cc1ccccc1
AC50 [17]: 4.83 µM (active) | EC50 [18]: > 99 µM (inactive) | AC50 (A-375 [19]): > 11 µM (active) | EC50 [20]: > 99 µM (inactive) | AC50 (A-375 [21]): > 11 µM (active)

C#CCOCCOCCOCCNc1nc(N2CCN(C(=O)C([C@@H](C)O)n3cc([C@@H](N)CCCCN)nn3)CC2)nc(N2CCN(C(=O)[C@H](CO)n3cc([C@@H](N)C(C)C)nn3)CC2)n1 (stereo partly drawn)
IC50 (Bcl-2-related protein A1): > 20 µM (inactive) | IC50 [22]: 8.01 µM (active) | IC50 [23]: 7.85 µM (active)

COc1ccc(NS(=O)(=O)c2cc([N+](=O)[O-])ccc2N/N=C\c2c(C)[nH]c3ccccc23)cc1
EC50 (Beta-galactosidase): > 40 µM (inactive) | IC50 [24]: > 40 µM (not active) | EC50 [25]: 17.6 µM (active) | EC50 [26]: 19.9 µM (active)

O=C(O)c1ccc(N/N=C/C2=Cc3ccccc3OC2)cc1
IC50 (HEK293): > 67.6 µM (inactive) | IC50 [16]: > 67.6 µM (inactive)

CC1CC2(C)Oc3ccccc3CC2C(C)C1CNCCCN(C)C (stereo not drawn)
EC50 [27]: > 120 µM (not active) | EC50 [28]: > 120 µM (not active) | EC50 [29]: > 120 µM (not active) | AC50 (A-375 [19]): 29.8 µM (active)
